# Measured values reported in patent US12275685B2, “Oligo-benzamide analogs and their use in cancer treatment” (Board of Regents, The University of Texas System, priority 2018, dated 2025).
# Where two headings read alike, the source gives them in different places.
# Experiments:
# [1] = test system: carboplatin resistant OCa cells; experiment: Chemotherapy resistant OCa cells, MTT and apoptosis assay; type: cell-based
# Method: (§1) FIGS. 49A-F: (FIGS. 49A-B) Effect of ERX-208 on chemotherapy resistant OCa cells was measured by MTT and apoptosis assay. (FIGS. 49C-F) Platinum-resistant PDX tumors were treated with vehicle or ERX-208 (10 mg/kg/day/i.p). Tumor volume (FIG. 49C), weights (FIG. 49D) tumors picture (FIG. 49E), bodyweights (FIG. 49F) are shown. ** P<0.01, ***p<0.001 ****p<0.0001.
# (§2) ERX-208 is effective in reducing growth of chemotherapy resistant OCa. OCa initially responds to chemotherapy; however, majority will develop chemotherapy resistance. […] The inventors conducted a proof of principle study using a therapy resistant HGSOC PDX model received from the UTHealth OBGYN PDX core. ERX-208 treatment resulted ˜60% reduction in tumor volume (FIGS. 49C-F).
# [2] = test system: ES2 and SKOV3 ovarian cancer cells; experiment: Colony formation assay; type: cell-based
# Method: FIG. 43: ES2 and SKOV3 cells were treated with ERX-208 and its effect on cell survival was measured using colony formation assays. ****p<0.0001.
# (§3) ERX-208. […] Functionally, ERX-208 causes growth inhibition of OCa cells, as noted by MTT assays using five established OCa cells (ES2, SKOV3, A2780, TOV21G, TOV112D) and five primary OCa cells derived from HGSOC patient ascites (AS21, AS23, AS25, AS28, AS29) (FIGS. 42B-C). […] The inventor noted an IC50 of ˜50-100 nM for ERX-208 both for inducing ERS and in reducing the growth of OCa cells.
# [3] = test system: OCa cells; experiment: Caspase-Glo 3/7 apoptosis assay; type: cell-based
# Method: (§4) FIGS. 12A-12D show the effect of TK208 against ovarian cancer cell lines ES2 (FIGS. 12A & 12B) and SKOV3 (FIGS. 12C & 12D).
# FIG. 45: ERX-208 effect on apoptosis of OCa cells was measured using Caspase-Glo® 3/7 Assays. ****p<0.0001.
# as §3
# [4] = test system: OCa cells; experiment: ER stress (ERS)/UPR induction in OCa cells, RT-PCR and western; type: cell-based
# Method: FIG. 40: Time course of induction of sXBP1 and CHOP mRNA in 4 OCa cell lines—ES2, SKOV3, OVCAR3 and OVCAR4 by ERX-208. Following treatment of OCa cell lines with 100 nM ERX-208, cells were harvested at various time points and lysates subjected to RT-PCR for both CHOP and sXBP1.
# FIG. 41: OCa cells were treated with ERX-208 for 16 h and the status of UPR proteins were determined using western blotting.
# as §3
# [5] = test system: HGSOC PDX tumors; experiment: HGSOC PDX tumors; type: in vivo, NSG mice; conditions: 21 days
# Method: FIGS. 48A-F: OCa PDX (n=6) tumors were established in the flanks of NSG mice. When the tumors reached 200 mm^3, treatment with vehicle or 10 mg/kg/day/i.p. ERX-208 was initiated. (FIG. 48A) Tumor volume, (FIG. 48B) tumor weight, (FIG. 48C) tumors picture, and
# (FIG. 48D) body weight is shown. (FIGS. 48E-F) IHC analysis of GRP 78 as a marker of ER stress *p<0.05; **p<0.01, ****p<0.0001.
# (§5) ERX-208 suppressed growth of ES2 CDX tumors. ES2 cells stably labelled with GFP/LUC reporter (2×10^5) were injected i.p. into nude mice. Following establishment of tumors, mice (n=5/group) were randomized and treated for 5 days/week with either 10 mg/kg/ip of ERX-208 or vehicle. […] ERX-208 is effective in reducing growth of HGSOC PDX tumors. Following establishment of PDX tumors, NSG mice (n=6/group) were randomized and treated for 5 days/week with either 10 mg/kg/ip of ERX-208 or vehicle.
# [6] = test system: OCa cells; experiment: MTT assay in OCa cells; type: cell-based
# Method: as §4
# (§6) FIGS. 42A-D: OCa cells were treated with ERX-11 (FIG. 42A) or ERX-208 (FIG. 42B). Primary OCa cells derived from ascites were treated with ERX-208 for 72 h (FIG. 42C) and cell viability by MTT assays. (FIG. 42D) Effect of ERX-208 on viability of IOSE cells was measured using MTT assays and TOV21G was used as +ve control.
# as §3
# [7] = test system: ovarian cancer cells; experiment: Growth inhibition of ovarian cancer cells; type: cell-based
# Excerpt: (§7) FIGS. 10A & 10B show effects of TK208 against cancer cells.
# (§8) In addition, another tris-benzmaide compound TK208 was synthesized and tested against breast cancer and ovarian cancer cell lines (FIGS. 10-15). […] These compounds (e.g., TK41, TK208, TK308 (FIG. 21), TK309 (FIG. 22), TK314, TK315) are extremely potent compounds that inhibit tumor growth and kill breast and ovarian cancer cells and as such, they are superb therapeutic candidates for such diseases.
# [8] = test system: triple-negative breast cancer cells (TNBC); experiment: Growth inhibition of TNBC cells; type: cell-based
# Excerpt: as §7
# TNBC is difficult to be treated and currently there are no good drugs available in the market.
# as §8
# [9] = test system: therapy resistant HGSOC PDX; experiment: Therapy resistant HGSOC PDX model; type: in vivo, mice; conditions: 10 mg/kg/day/i.p
# Method: as §1, §2
# [10] = test system: ovarian tumor; experiment: Ovarian xenograft and PDX models of TK208; type: in vivo, mouse
# Method: FIGS. 33A-H. FIGS. 33A-D show ovarian cancer xenografts (ES2) treated with vehicle or TK208 (ERX-208). Tumor volume (FIG. 33A), body weight (FIG. 33B) distribution of tumor weights at necropsy (FIG. 33C) and nodules (FIG. 33D) were graphed. FIGS. 33E-H show ovarian PDX tumors were treated with vehicle or TK208 (ERX-208). Tumor volume (FIG. 33E), distribution of tumor weights at necropsy (FIG. 33F) and tumor images (FIG. 33G) and body weight (FIG. 33H) were graphed.
# The inventors have tested the in vivo activity of TK208 (ERX-208) using both ovarian xenograft and PDX models.
# [11] = test system: ES2 and SKOV3 ovarian cancer cells; experiment: Cell cycle arrest; type: cell-based; conditions: S phase
# [12] = test system: normal ovarian surface epithelial cells (IOSE); experiment: MTT assay in IOSE cells; type: cell-based
# Method: as §6, §3
# [13] = test system: ES2 and SKOV3 ovarian cancer cells; experiment: Matrigel invasion chamber assay; type: cell-based
# Method: FIG. 44: ES2 and SKOV3 cells were treated with ERX-208 and its effect on invasion was measured using Matrigel invasion chamber assays. ****p<0.0001.
# as §3
# [14] = test system: ES2 CDX tumors; experiment: ES2 CDX tumors; type: in vivo, nude mice; conditions: 15 days
# Method: FIG. 47: ES2/GFP/LUC cells were injected i.p. and tumors established. Mice (n=5) were treated with vehicle or ERX-208 (10 mg/kg/day/i.p). Tumor volume, tumor weight, number of tumor nodules are shown. **p<0.01,****p<0.0001.
# as §5
compound,measurement,setting,value
CC(C)COc1cc(C(=O)Nc2ccc(C(=O)N[C@H]3CC[C@H](C(=O)Nc4cnc5ccccc5c4)CC3)cc2OCC(C)C)ccc1NC(=O)c1ccc([N+](=O)[O-])c(OCCO)c1 [TK208],apoptosis of carboplatin resistant OCa cells,[1],promoted apoptosis
same,viability of carboplatin resistant OCa cells,[1],significantly reduced viability
same,colony formation,[2],reduces colony formation
same,colony formation,[2]; listed as ERX-208,reduced colony formation
same,apoptosis,[3],promotes apoptosis
same,induction of CHOP mRNA,"[4]; 100 nM, within 24 h",> 15 fold
same,induction of sXBP1 mRNA,"[4]; 100 nM, within 24 h",> 10 fold
same,IC50,"[4]; OCa cells, read-out: IC50 for inducing ERS",50 to 100 nM
same,induction of UPR components at the protein level,[4]; multiple OCa cell lines,"induce classic UPR components peIF2a, CHOP and LC3B"
same,reduction of tumor volume,[5]; 10 mg/kg/ip 5 days/week,~68%
same,body weight,[5]; 10 mg/kg/ip,no significant changes in body weight
same,reduction in tumor weight,[5]; 10 mg/kg/ip,60%
same,activity against OCa cells / cell viability,[6],reduces cell viability
same,IC50,[6]; read-out: IC50 in reducing the growth of OCa cells,50 to 100 nM
same,IC50,[7],10 to 100 nM
same,IC50,[8],10 to 100 nM
same,reduction in tumor volume,[9],~60%
same,mouse body weight,"[10]; mouse, in vivo",no effect on mouse body weight
same,reduction of ovarian tumor volume,[10]; xenograft and PDX models,good efficacy
same,growth arrest,[11],promotes growth arrest
same,activity in IOSE,[12],limited activity
same,invasion,[13],reduces invasion
same,invasion,[13]; listed as ERX-208,reduced
same,reduction of tumor volume,"[14]; 10 mg/kg/ip 5 days/week, Xenogen-IVIS",~60%
same,body weight,[14]; 10 mg/kg/ip,no significant change in body weight
same,reduction in tumor nodules,[14]; 10 mg/kg/ip,~50%
same,reduction in tumor weight,[14]; 10 mg/kg/ip,~50%
